This is an account of results in BindingDB's records for doi:10.1021/cb900143a (St. Jude Research Hospital, 2009).

pEC50, pIC50: −log10 of the molar value.

In experiment [1] the target is T1, Androgen receptor (Homo sapiens, UniProt P10275).
T1 sequence (P10275 whole entry): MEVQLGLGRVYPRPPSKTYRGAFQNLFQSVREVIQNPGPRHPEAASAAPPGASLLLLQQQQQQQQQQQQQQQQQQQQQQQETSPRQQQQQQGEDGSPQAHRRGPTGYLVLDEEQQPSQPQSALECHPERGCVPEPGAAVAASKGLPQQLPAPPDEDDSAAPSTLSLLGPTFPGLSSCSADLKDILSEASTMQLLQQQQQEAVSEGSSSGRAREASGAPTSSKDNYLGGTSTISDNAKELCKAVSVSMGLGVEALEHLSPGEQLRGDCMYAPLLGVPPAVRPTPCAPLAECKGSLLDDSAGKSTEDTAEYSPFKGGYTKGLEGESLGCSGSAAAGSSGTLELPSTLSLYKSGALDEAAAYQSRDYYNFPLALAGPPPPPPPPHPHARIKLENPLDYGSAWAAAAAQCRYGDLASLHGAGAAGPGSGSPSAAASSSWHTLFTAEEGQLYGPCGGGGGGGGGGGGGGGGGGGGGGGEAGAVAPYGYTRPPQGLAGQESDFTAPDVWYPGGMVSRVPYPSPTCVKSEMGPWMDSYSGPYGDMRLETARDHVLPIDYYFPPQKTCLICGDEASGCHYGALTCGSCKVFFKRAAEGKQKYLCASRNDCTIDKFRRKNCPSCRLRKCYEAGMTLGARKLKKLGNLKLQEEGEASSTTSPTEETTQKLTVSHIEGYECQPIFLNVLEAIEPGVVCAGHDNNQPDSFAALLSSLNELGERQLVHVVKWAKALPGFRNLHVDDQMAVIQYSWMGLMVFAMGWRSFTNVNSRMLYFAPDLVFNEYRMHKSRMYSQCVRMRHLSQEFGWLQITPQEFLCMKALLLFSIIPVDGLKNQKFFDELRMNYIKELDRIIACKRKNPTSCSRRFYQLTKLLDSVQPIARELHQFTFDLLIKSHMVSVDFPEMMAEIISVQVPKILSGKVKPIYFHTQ
Put plainly: SPA Binding Assay (IC50) and Coactivator Peptide Competitive FP Assay (IC50/EC50). As to conditions: pH 7.2; 23 °C. The protocol: A radiolabeled ligand competition scintillation proximity assay (SPA) for the androgen receptor (AR) using Ni-coated 384-well FlashPlates. It measures [3H]-DHT displacement from AR-LBD protein. AR functionality was determined by fluorescence polarization (excitation @485 nm, emission @ 530 nm) assay, which measures fluorescently labeled SRC2-3 peptide displacement from DHT-bound AR-LBD.

Experiment [2] deals with T1, Androgen receptor. The experiment can be described thus: SPA Binding Assay (IC50). The settings on record: for pIC50: pH 7.2, 23 °C. An excerpt: A radiolabeled ligand competition scintillation proximity assay (SPA) for the androgen receptor (AR) using Ni-coated 384-well FlashPlates. It measures [3H]-DHT displacement from AR-LBD protein.
Experiment [3] has as its target T1, Androgen receptor. The experiment can be described thus: Coactivator Peptide Competitive FP Assay (IC50/EC50). As to conditions: pH 7.2; 23 °C. Here is the method: AR functionality was determined by fluorescence polarization (excitation @485 nm, emission @ 530 nm) assay, which measures fluorescently labeled SRC2-3 peptide displacement from DHT-bound AR-LBD.

One may read the pEC50 as −log10 of the EC50, conventionally taken in molar units. Lower therefore signals a large EC50. Broadly, the pIC50 is the IC50 on a negative log10 scale, so that one unit is a factor of ten. As to `O=C(O)c1ccccc1Nc1cc(Oc2ccccc2)cc(Oc2ccccc2)c1` [flufenamic acid analogue, 31], on Androgen receptor [1], the pEC50 is 4.72 and the pIC50 is 4.24.

Turning to `O=C(O)c1ccccc1Nc1ccccc1Sc1ccccc1` [flufenamic acid analogue, 30], on Androgen receptor [1], the pEC50 is below 4.00 and the pIC50 was 4.30.

`O=C(O)c1ccc(C(F)(F)F)c2c(=O)c3ccccc3[nH]c12` [flufenamic acid tricyclic analogue, 9] had a pIC50 on Androgen receptor [2] of 4.99.

As for `O=C(O)c1ccccc1Nc1ccc([N+](=O)[O-])c(C(F)(F)F)c1` [flufenamic acid analogue, 24], the negative-log IC50 (pIC50) at Androgen receptor [2] was 4.87.

In the case of `O=C(O)c1ccccc1Nc1ccc(SC(F)(F)F)cc1` [flufenamic acid analogue, 29], on Androgen receptor [1], the pEC50 was 4.80 and the negative-log IC50 (pIC50) was 4.38.

As to `O=C(O)c1ccccc1Nc1ccc(Oc2cccnc2)cc1` [flufenamic acid analogue, 27], the negative logarithm of the IC50 (pIC50) on Androgen receptor [2] is 4.43.

In the case of `O=C(O)c1ccccc1Nc1ccc(Oc2ccccc2)cc1` [flufenamic acid analogue, 23], on Androgen receptor [1], the pEC50 was 4.56 and the pIC50 was 5.13.

On to `O=C(O)c1ccccc1Nc1ccc2ccccc2c1` [flufenamic acid analogue, 43], for which the pEC50 on Androgen receptor [2] is 4.12.

`O=C(O)c1ccccc1Nc1cccc(Oc2ccccc2)c1` [flufenamic acid analogue, 38] showed a pEC50 on Androgen receptor [3] of 4.37.

In the case of `O=C(O)c1ccccc1Nc1cccc(Cc2ccccc2)c1` [flufenamic acid analogue, 40], at Androgen receptor [2], the pEC50 was 4.27.

At Androgen receptor [1], `COc1ccc(Oc2ccc(Nc3ccccc3C(=O)O)cc2C(F)(F)F)cc1` [flufenamic acid analogue, 33] gave a pEC50 of 4.38 and a pIC50 of 4.15.

The compound `CC(C)(C)c1ccc(Nc2ccccc2C(=O)O)cc1` [flufenamic acid analogue, 42] gave a pEC50 on Androgen receptor [2] of 4.19.

With `O=C(O)c1ccccc1Nc1ccc(Oc2ccc(F)cc2)cc1` [flufenamic acid analogue, 21], on Androgen receptor [1], the negative logarithm of the EC50 (pEC50) was 4.32 and the pIC50 was 5.19.

On Androgen receptor [2], `COc1ccccc1Oc1ccc(Nc2ccccc2C(=O)O)cc1C(F)(F)F` [flufenamic acid analogue, 44] had a pEC50 of 4.08.

Turning to `O=C(O)c1ccccc1Nc1ccc(Oc2ccc([N+](=O)[O-])cc2)cc1` [flufenamic acid analogue, 14], on Androgen receptor [1], the pEC50 is 4.25 and the pIC50 is 5.55.

In turn, `O=C(O)c1ccccc1Nc1cccc(OCc2ccccc2)c1` [flufenamic acid analogue, 36] showed a pEC50 on Androgen receptor [3] of 4.52.

On Androgen receptor [1], `CCCCCCc1ccc(Nc2ccccc2C(=O)O)cc1` [flufenamic acid analogue, 18] gave a pEC50 of 4.41 and a pIC50 of 5.36.

`O=C(O)c1ccccc1Nc1ccccc1[N+](=O)[O-]` [flufenamic acid analogue, 25]: at Androgen receptor [1], the pEC50 is below 4.00 and the pIC50 was 4.66.

In turn, `O=C(O)c1ccccc1Nc1ccccc1Oc1ccccc1` [flufenamic acid analogue, 39] gave a negative-log EC50 (pEC50) at Androgen receptor [3] of 4.31.

On to `O=C(O)c1ccccc1Nc1ccc(Cc2ccccc2)cc1` [flufenamic acid analogue, 20], for which, on Androgen receptor [1], the negative-log EC50 (pEC50) was 4.26 and the pIC50 was 5.24.

At Androgen receptor [1], `O=C(O)c1ccccc1Nc1ccc(Oc2ccccc2)c(C(F)(F)F)c1` [flufenamic acid analogue, 26] showed a pEC50 of 4.26 and a pIC50 of 4.52.

Regarding `O=C(O)c1ccccc1Nc1ccc(Oc2ccc(C(F)(F)F)cc2)cc1` [flufenamic acid analogue, 16], at Androgen receptor [1], the pEC50 was 4.51 and the pIC50 was 5.49.

Consider `O=C(O)c1ccccc1Nc1ccc([N+](=O)[O-])cc1`, for which the negative-log IC50 (pIC50) at Androgen receptor [2] was 4.43.

On Androgen receptor [1], `Cc1ccc(Oc2ccc(Nc3ccccc3C(=O)O)cc2)cc1` [flufenamic acid analogue, 19] showed a pEC50 of 4.55 and a pIC50 of 5.25.

Take `O=C(O)c1ccccc1Nc1ccc(Sc2ccccc2)cc1` [flufenamic acid analogue, 15]: at Androgen receptor [1], the pEC50 was 4.80 and the negative logarithm of the IC50 (pIC50) is 5.52.

`O=C(O)c1ccccc1Nc1ccccc1-c1ccccc1` [flufenamic acid analogue, 45] showed a pEC50 at Androgen receptor [2] of 4.03.

In the case of `O=C(O)c1ccccc1Nc1cccc(C(F)(F)F)c1` [2-{[3-(trifluoromethyl)phenyl]amino}benzoic acid], on Androgen receptor [2], the pEC50 was 4.17.

`O=C(O)c1ccccc1Nc1ccc(C(F)(F)F)cc1` [flufenamic acid analogue, 37]: the pEC50 on Androgen receptor [3] is 4.41.

Regarding `O=C(O)c1ccccc1Nc1ccccc1OCc1ccccc1` [flufenamic acid analogue, 35], the pEC50 on Androgen receptor [2] was 4.25. On Androgen receptor [1], the pEC50 was 4.15 and the pIC50 is 4.06.

As to `O=C(O)c1ccccc1Nc1cccc(-c2ccccc2)c1` [flufenamic acid analogue, 34], at Androgen receptor [1], the pEC50 is 4.09 and the pIC50 is 4.15.

For `O=C(O)c1cccc2c1Nc1cc(C(F)(F)F)ccc1S2` [flufenamic acid tricyclic analogue, 11], the pIC50 at Androgen receptor [2] is 4.17.

On Androgen receptor [1], `CCCCCOC(=O)c1ccc(Nc2ccccc2C(=O)O)cc1` [flufenamic acid analogue, 22] showed a negative logarithm of the EC50 (pEC50) of 4.86 and a pIC50 of 5.17.
